Results as given in patent publication US20140024663A1, “ATB(0,+) AMINO ACID TRANSPORTER AS A DRUG TARGET FOR TREATMENT OF ESTROGEN RECEPTOR-POSITIVE BREAST CANCER” (GEORGIA HEALTH SCIENCES UNIVERSITY RESEARCH INSTITUTE, INC., priority 2012, published 2014).

What was measured:
MCF7 cells [1] = test: ASNS and CHOP mRNA by RT-PCR as readout for amino acid deprivation; type: cell-based, human
Procedure: FIGS. 6A to 6C. Effects of SLC6A14 blockade with α-MT in breast cancer cells. In FIG. 6A, MCF10A (a non-malignant mammary epithelial cell line), MCF7 (an ER-positive breast cancer cell line), and MB231 (an ER-negative breast cancer cell line) cells were treated with or without 2.5 mM α-MT for 24, 48, or 72 h and then used for analysis of asparagine synthetase (ASNS) and CHOP mRNA levels. In FIG. 6B, MCF7, MB231 and MCF10A cells were treated with or without 2.5 mM α-MT for 48 h and then used for immunocytochemical analysis of the constitutively expressed LC-3. In FIG. 6C, MCF7 cells were treated with (“b” and “c”) or without (“a”) α-MT (2.5 mM) for 48 h and then used for electron microscopy. Arrows indicate sequestration of cytoplasm and organelles in pre-autophagosomes and autophagosome, and the asterisk indicates condensed chromatin. N, nucleus. FIGS. 8A and 8B. Influence of α-MT on ASNS and CHOP mRNA levels in control MCF7 cells and in MCF7 cells with shRNA-induced silencing of SLC6A14. In FIG. 8A, five different SLC6A14-specific shRNAs were tested in MCF7 cells using a lentivirus-based system to monitor their efficacy to silence SLC6A14. SLC6A14 mRNA levels were measured by RT-PCR with GAPDH as an internal control. c, control. In FIG. 8B, SLC6A14 was silenced in MCF7 cells with shRNA-4 using a lentivirus-based system and then treated without or with α-MT (2.5 mM, 48 h). RNA isolated from the cells was then used for RT-PCR to monitor the levels of asparagine synthetase (ASNS) and CHOP mRNAs. FIG. 11. Estrogen-dependent suppression of the efficacy of α-MT to induce ASNS and CHOP expression in MCF7 cells. MCF7 cells were cultured in a phenol red-free medium in the absence or presence of estradiol (E2, 10 nM) for 24 h and then treated without or with α-MT (2.5 mM, 24 h). The cells were then used for analysis of SLC6A14, asparagine synthetase (ASNS), and CHOP mRNA levels by RT-PCR. Hypoxanthine/guanine phosphoribosyltransferase-1 (HPRT1) mRNA levels were used as an internal control. RT-PCR. Total RNA was isolated using TRIZOL™ (Invitrogen). 2 μg of RNA was reverse transcribed using the GeneAmp PCR System (Applied Biosystems, Branchburg, N.J.). PCR reaction was performed under optimal conditions specific for each of the primer pairs. GAPDH (glyceraldehyde-3-phosphate dehydrogenase) or HPRT1 (hypoxanthine/guanine phosphoribosyl transferase-1) were used as internal controls. PCR products were size-fractionated on agarose gel, stained with ethidium bromide and imaged using Alpha Imager (Santa Clara, Calif.). Densitometry was performed on PCR bands and normalized to the internal control. Normalized values were used to compare mRNA levels of target genes. Primers used for PCR were as follows.

MCF7 cells [2] = test: Analysis of autophagy (LC3 localization, electron microscopy, autophagosomal proteolysis, GFP-LC3); type: cell-based, human; settings: MCF7, α-MT 2.5 mM, 48 h
Procedure: FIGS. 6A to 6C. Effects of SLC6A14 blockade with α-MT in breast cancer cells. In FIG. 6A, MCF10A (a non-malignant mammary epithelial cell line), MCF7 (an ER-positive breast cancer cell line), and MB231 (an ER-negative breast cancer cell line) cells were treated with or without 2.5 mM α-MT for 24, 48, or 72 h and then used for analysis of asparagine synthetase (ASNS) and CHOP mRNA levels. In FIG. 6B, MCF7, MB231 and MCF10A cells were treated with or without 2.5 mM α-MT for 48 h and then used for immunocytochemical analysis of the constitutively expressed LC-3. In FIG. 6C, MCF7 cells were treated with (“b” and “c”) or without (“a”) α-MT (2.5 mM) for 48 h and then used for electron microscopy. Arrows indicate sequestration of cytoplasm and organelles in pre-autophagosomes and autophagosome, and the asterisk indicates condensed chromatin. N, nucleus.
FIGS. 7A and 7B. Induction of autophagy in MCF7 cells by α-MT. […] The concentrations of α-MT and 3-MA, when present, were 2.5 mM and 10 mM. The treatment time was 48 h. The extent of proteolysis was determined by the radioactivity present in the protein-free supernatant. […] In FIG. 7B, MCF7 cells were transfected with an GFP-LC3 expression plasmid, and 24 h later, the cells were treated with or without α-MT (2.5 mM) in the presence or absence of 3-MA (10 mM) for 48 h. At the end of the treatment, cells were fixed, and the percent of cells with punctate localization of the ectopically expressed GFP-LC3 was quantified. “a” represents compared to control; “b” represents compared to treatment with α-MT alone; and “c” represents compared to treatment with […]; *, p<0.001.
Analysis of autophagy. Autophagy was analyzed as described previously (Periyasamy-Thandavan et al., 2010, Autophagy; 6:19-35; and Samaddar et al., 2008, Mol Cancer Ther; 7:2977-2987) by monitoring the localization pattern of constitutively expressed LC3 as well as that of ectopically expressed GFP-LC3. In the case of the constitutively expressed LC3, cells were treated without or with α-MT, and then used for immunocytochemical analysis of LC3 localization pattern. For ectopically expressed LC3, cells were transfected with a GFP-LC3 expression plasmid. Briefly, cells were plated on a coverslip to reach ˜50% confluence and transfection of these cells was done with 1 μg of the plasmid using FuGENE transfection reagent (Roche, Nutley, N.J.). […] At the end of the treatment, cells were fixed with 4% paraformaldehyde and examined by fluorescence microscopy to count the number of cells with punctate GFP-LC3. Autophagosomal proteolysis was quantified as described previously (Periyasamy-Thandavan et al., 2010, Autophagy; 6:19-35). […]

Structure (SMILES): CC(N)(Cc1c[nH]c2ccccc12)C(=O)O (racemic) [α-MT, α-methyl-DL-tryptophan]
- levels of asparagine synthetase mRNA and CHOP mRNA (MCF7 cells [1]; MCF7, α-MT 2.5 mM, 24, 48 or 72 h): increased
- α-MT-induced increase of asparagine synthetase and CHOP expression (MCF7 cells [1]; MCF7 cells transfected with vector carrying shRNA #4 (SLC6A14 silenced), α-MT 2.5 mM, 48 h): markedly attenuated
- magnitude of α-MT-induced asparagine synthetase and CHOP expression (MCF7 cells [1]; MCF7 cells treated with estradiol 10 nM, phenol red-free medium, α-MT 2.5 mM, 24 h): significantly reduced
- expression levels of asparagine synthetase and CHOP (MCF7 cells [1]; MCF7 control cells transfected with empty vector, α-MT 2.5 mM, 48 h): increased
- expression of asparagine synthetase and CHOP (MCF7 cells [1]; MCF7 control cells, phenol red-free medium, absence of estradiol, α-MT 2.5 mM, 24 h): induced the expression
- autophagosomal proteolysis of 14C-labeled proteins (MCF7 cells [2]): increased proteolysis
- autophagy (punctate localization of constitutively expressed LC3, autophagosomes in electron microscopy) (MCF7 cells [2]): induced autophagy
